{
  "source": "patent US20230165970A1",
  "about": "“COMPOSITIONS AND METHODS FOR THE TREATMENT OF BACTERIAL INFECTIONS” (priority 2017, published 2023)",
  "key": {"[1]": {"test_system": "Ec COL^R LPS: colistin-resistant (MCR-1) strain (AR0349)", "experiment": "Lethal mouse endotoxemia model (LD95 purified LPS IP)", "assay_type": "in vivo, C57BL/6J mice", "conditions": "(D) Endotoxemia (Ec COL^R LPS); 5 mg/kg IV, single, -1 hr; survival after three days", "procedure": "(§1) Studies (B)-(D) shown in Table 22 summarizes the efficacy of compounds in lethal models of endotoxemia. In these models 6 week old C57I/6J immune competent mice (Jackson Laboratory) were challenged IP with purified lipopolysaccharide (LPS) in PBS at an LD95. For all studies, LPS was obtained from Sigma (catalog numbers in the table footnote) or were purified using a kit obtained from iNtRON Biotechnology Inc. (cat #17141). One hour prior to LPS challenge mice were dosed with test articles as indicated (Table 22). The results of these studies indicate that compounds are able to neutralize the lethal effects of LPS in a severe endotoxemia/sepsis model.\nEnd point was survival after 3 days. Ec: E. coli 0111:B34, Sigma cat #L4130; Ab: Acinetobacter baumannii 5075; Kp: Klebsiella pneumonia 10, Sigma cat #L4268; Ng: Neisseria gonorrhoeae 19424; Ec 026:B86, Sigma cat #L2762; Pm: Proteus mirabilis, Sigma cat #SMB00704; Sm: Serratia marcescens, Sigma cat #L6016; Pa: Pseudomonas aeruginosa 10. […] Purified LPS used for all endotoxemia studies and if not denoted by a Sigma catalog number the LPS was purified in-house using an iNtRON #17141 purification kit. *Delayed death, at the time Fc only animals reached 100% mortality all Conjugate 41 mice were still alive."}, "E. coli 25922": {"test_system": "E. coli 25922", "conditions": "(A) Bacteremia (E. coli); 5 mg/kg IV, single, +1 hr; survival after three days; N=3", "procedure": "In vivo screening of selected compounds was accomplished in an E. coli bacteremia model (N=3). Efficacy was assessed in an animal model of infection using CD-1 mice by evaluating bacteremia in immune competent mice challenged with 2× the LD95 of E. coli 25922 (dosed qd, intraperitoneally (IP) at T+1 hour, survival endpoint).\nColistin (COL) and Int-17 were dosed at 0.3 mg/kg and Int-41 was dosed at 3.0 mg/kg. Percent survival was determined 72 hours after bacterial challenge. Compounds with MICs against E. coli 25922 of less than 4 μg/ml were evaluated in the bacteremia model.\nInt-115 and Int-118 were evaluated for potency in a lethal model of bacteremia. […] Test articles were dissolved in 1× PBS and injected IV at a dose volume of 10 ml/kg one hour following bacterial challenge. Animals were monitored twice daily and mortality scored over three days.\nCD-1 mice were used for bacteremia, C57BL/6J mice for endotoxemia. The endpoint was survival after three days for both models."}, "Ec LPS: E. coli 0111:B4": {"test_system": "Ec LPS: E. coli 0111:B4", "experiment": "Lethal mouse endotoxemia model (LD95 purified LPS IP)", "assay_type": "in vivo, C57BL/6J mice", "conditions": "(B) Endotoxemia (Ec LPS); 1 mg/kg IV, single, -1 hr; survival after three days", "procedure": "as §1\nEnd point was survival after 3 days. Ec: E. coli 0111:[…] (Sigma cat #L4130); Ab: Acinetobacter baumannii 5075 (iNtRON cat #17141); Ng: Neisseria gonorrhoeae 19424 (iNtRON cat #17141); COL: colistin.\nEnd point was survival after 3 days. Ec: E. coli 0111:B34, Sigma cat #L4130; Ab: Acinetobacter baumannii 5075; Kp: Klebsiella pneumonia 10, Sigma cat #L4268; Ng: Neisseria gonorrhoeae 19424; Ec 026:B86, Sigma cat #L2762; Pm: Proteus mirabilis, Sigma cat #SMB00704; Sm: Serratia marcescens, Sigma cat #L6016; Pa: Pseudomonas aeruginosa 10. […]"}},
  "note": "*1 amine or outer side, *2 acyl side, *3 side chain or, on linkers, in order; H or OH if unused. Where a SMILES comes first, the peptide text is derived from it. Bridges are numbered along the chain shown (N, C = ends). Roman numbers before positions name the chains, in order. [ ]: non-standard residue; d: D form. The star is where a group is joined. X5 = C#CCOCCOCCOCCOCCN1C[C@@H](C(=O)[*:1])[C@H](C(=O)[*:2])C1; X2 = O=C([C@@H](N[*:1])[C@H](O)CCC(F)(F)F)[*:2]; Propargyl(OCH2CH2)4CO = C#CCOCCOCCOCCOCCC(=O)*; azaDab = NCCN(N[*:1])C(=O)[*:2]; Aoc(2) = CCCCCC[C@H](N)C(=O)O; Nle = CCCC[C@H](N)C(=O)O; Dab = NCC[C@H](N)C(=O)O; azaGly = NNC(=O)O",
  "data": [
    {"smiles": "C#CCOCCOCCOCCOCCN1C[C@@H](C(=O)N[C@@H](CCCC)C(=O)N[C@@H](CCN)C(=O)N[C@H](C(=O)NNC(=O)N[C@H]2CCNC(=O)[C@H]([C@@H](C)O)NC(=O)[C@H](CCN)NC(=O)[C@H](CCN)NC(=O)[C@H](CC(C)C)NC(=O)[C@@H](Cc3ccccc3)NC(=O)[C@H](CCN)NC2=O)[C@@H](C)O)[C@H](C(=O)N[C@@H](CCCC)C(=O)N[C@@H](CCN)C(=O)N[C@H](C(=O)NNC(=O)N[C@H]2CCNC(=O)[C@H]([C@@H](C)O)NC(=O)[C@H](CCN)NC(=O)[C@H](CCN)NC(=O)[C@H](CC(C)C)NC(=O)[C@@H](Cc3ccccc3)NC(=O)[C@H](CCN)NC2=O)[C@@H](C)O)C1", "note": "[Int-120] (I: [Nle][Dab]T[azaGly][Dab][Dab][dF]L[Dab][Dab]T / II: [Nle][Dab]T[azaGly][Dab][Dab][dF]L[Dab][Dab]T; lactam I:5-I:C, II:5-II:C; linker I:N-II:N via X5)", "values": [
      {"measurement": "% survival", "setting": "[1]", "value": 100, "unit": "%"}
    ]},
    {"smiles": "C#CCOCCOCCOCCOCCC(=O)N[C@@H](CCCCCC)C(=O)N[C@@H](CCN)C(=O)N[C@H](C(=O)N[C@@H](CCN)C(=O)N[C@H]1CCNC(=O)[C@H]([C@@H](C)O)NC(=O)[C@H](CCN)NC(=O)[C@H](CCN)NC(=O)[C@H](CC(C)C)NC(=O)[C@@H](Cc2ccccc2)NC(=O)[C@H](CCN)NC1=O)[C@H](O)CCC(F)(F)F", "note": "[Int-118] ({Propargyl(OCH2CH2)4CO}-[Aoc(2)][Dab][X2][Dab][Dab][Dab][dF]L[Dab][Dab]T; lactam 5-C)", "values": [
      {"measurement": "% survival", "setting": "E. coli 25922", "value": 66, "unit": "%"}
    ]},
    {"smiles": "C#CCOCCOCCOCCOCCC(=O)N[C@@H](CCCCCC)C(=O)N[C@@H](CCN)C(=O)N[C@H](C(=O)NN(CCN)C(=O)N[C@H]1CCNC(=O)[C@H]([C@@H](C)O)NC(=O)[C@H](CCN)NC(=O)[C@H](CCN)NC(=O)[C@H](CC(C)C)NC(=O)[C@@H](Cc2ccccc2)NC(=O)[C@H](CCN)NC1=O)[C@@H](C)O", "note": "[Int-129] ({Propargyl(OCH2CH2)4CO}-[Aoc(2)][Dab]T[azaDab][Dab][Dab][dF]L[Dab][Dab]T; lactam 5-C)", "values": [
      {"measurement": "% survival", "setting": "Ec LPS: E. coli 0111:B4", "value": 100, "unit": "%"}
    ]}
  ]
}
